Experimental data: ChEMBL document CHEMBL3425506, “Synthesis, antimycobacterial evaluation and pharmacophore modeling of analogues of the natural product formononetin” (2015)

The compounds below were run on Mycobacterium tuberculosis (assay: Antimycobacterial activity against Mycobacterium tuberculosis H37Rv ATCC 27294 assessed as inhibition of microbial growth at 10 uM after 5 to 8 days by MABA method). Conditions: read-out: GI.
Format: functional

SMILES	inhibition of growth at 10 µM [%]
CC(C)(C)c1ccc(-c2coc3cc(O)ccc3c2=O)cc1	95
COc1ccc(/C=C/C(=O)c2ccc(O)cc2O)cc1	58
COc1ccc(-c2coc3ccc(OC)cc3c2=O)cc1	0
COc1ccc(-c2coc3cc(O)ccc3c2=O)cc1OC [CLADRIN]	14
COc1ccc(-c2coc3ccc(Br)cc3c2=O)cc1	5
COc1ccc(-c2coc3cc(O)ccc3c2=O)cc1F	13
COc1ccc(-c2coc3cc(F)ccc3c2=O)cn1	2
COc1ccc(-c2coc3ccc(F)cc3c2=O)cc1	0
COc1ccc(-c2coc3ccccc3c2=O)cc1	0
COc1ccc(-c2coc3cc(O)ccc3c2=S)cc1	4
O=c1c(-c2ccc(Cl)cc2)coc2cc(O)ccc12	54
COc1ccc(-c2c[nH]nc2-c2ccc(O)cc2O)cc1	40
COc1ccc(-c2cnoc2-c2ccc(O)cc2O)cc1	15
O=c1c(-c2ccccc2)coc2ccccc12 [ISOFLAVONE]	0
COc1ccc(-c2coc3cc(O)ccc3c2=O)cc1 [FORMONONETIN]	88
COc1ccc(-c2coc3ccc(O)cc3c2=O)cc1	28
N#Cc1ccc(-c2coc3cc(O)ccc3c2=O)cc1	16
COc1ccc(-c2coc3ccc(C)cc3c2=O)cc1	7
COc1ccc(-c2coc3cc(F)ccc3c2=O)cc1	0
COc1ccc(-c2coc3ccc(Cl)cc3c2=O)cc1	0
COc1ccc(-c2coc3cc(O)ccc3c2=O)cn1	0
